Read-outs that look alike come from different tables or passages of the source.

From patent publication US5532228A, “Side-chain homologous vitamin D derivatives, process for their production, pharmaceutical preparations containing these derivatives and their use as pharmaceutical agents” (Schering Aktiengesellschaft, priority 1990, dated 1996) come the findings set out here.

Assay [1] has as its system HL 60 cells (human leukemia cells, promyelocytic cell line). Kind of assay: HL 60 differentiation induction into macrophages (NBT reduction to formazan). Format: cell-based. As to conditions: for differentiation-stimulating effect compared with calcitriol: HL 60 cells, versus calcitriol; for EC50: Homo sapiens, HL-60, 96 hours incubation, NBT-TPA, formazan at 650 nm, read-out: ED50 of differentiation induction of HL 60 cells into macrophages (formazan formed). As for the experimental part:
To quantify the differentiation-stimulating effect of calcitriol analogs, the test indicated below was performed:
HL 60 cells are cultivated in tissue culture medium (RPM1--10% fetal calf serum) at 37° C. in an atmosphere of 5% CO2 in air.
The test substances are-dissolved in ethanol and diluted with tissue culture medium without phenol red to the desired concentration. The dilution stages are mixed with the cell suspension in a ratio of 1:10 and 100 microliters each of this cell suspension mixed with substance is pipetted into an indentation of a 96-hole plate. As a control, a cell suspension is mixed analogously with the solvent.
After incubation for 96 hours at 37° C. in 5% CO2 in air, 100 microliters of an NBT-TPA solution (nitro blue tetrazolium (NBT), final concentration in the batch 1 mg/ml, tetradecanoyl-phorbol myristate-13-acetate (TPA), final concentration in the batch 2×10^-7 mol/l) is pipetted into each indentation of the 96-hole plate into the cell suspension.
By incubation for 2 hours at 37° C. and 5% CO2 in air, the NBT is reduced to insoluble formazan because of the intracellular oxygen radical release, stimulated by TPA, in the cells differentiated into macrophages.
To end the reaction, the indentations of the 96-hole plate are drained and the adhering cells are fixed by adding methanol and dried after fixation.
To dissolve the intracellular formazan crystals formed, 100 microliters of potassium hydroxide (2 val/l) and 100 microliters of dimethyl sulfoxide are pipetted into each indentation and are exposed to ultrasonic waves for 1 minute. The concentration of formazan is measured by spectrophotometry at 650 nm.
The concentration of formazan formed is regarded as a measurement for the differentiation induction of the HL 60 cells into macrophages. The relative effectiveness of the test substance results from the quotient of ED50 test substance/ED50 calcitriol.

Assay [2] relates to Keratinocytes of newborn mice. Kind of assay: antiproliferative test: 3H-thymidine incorporation in DNA of keratinocytes. Format: cell-based, mouse (neonatal NMRI mice). As to conditions: mouse keratinocytes, 24 hours with test substance in serum-free medium at 32.5° C., 4 hours 3H-methylthymidine, read-out: IC50 of inhibition of 3H-thymidine incorporation in DNA. The procedure:
Keratinocytes of newborn mice are prepared and cultivated in a modification of the method of Yuspa, S. and Harris, C.
Neonatal NMRI mice of both sexes are killed by decapitation, the skin is removed, washed in an antibiotic-antimycotic solution and, with the dermal side facing down, incubated overnight at 4° C. in dispase II solution (1.2 U/ml in tissue culture medium M199 +25 mmol/l HEPES+15% fetal calf serum (FCS)+50 U/ml of penicillin/streptomycin (P/S) (preparation medium, PM). The epidermis is removed and a single-cell suspension is produced by trypsinization. After centrifuging, the cell sediment is resuspended, the number of living, small, round cells is determined after trypan blue staining and the cells are sown in a density of 4×10^5 cells/cm^2 in Primaria 24-hole plates in tissue culture medium (M199+15% FCS+50 U/ml of P/S). […] Then, 0.4 microcuries/50 microliters of ^3 H-methylthymidine (40 Ci/mmol) is added. After 4 hours, the medium is suctioned off and the reaction is ended by adding 500 microliters of ice-cold 10% trichloroacetic acid (TCA). The cells are washed with TCA and PBS, lysed by incubation in a proteinase K-solution (10 mmol/l of tris-HCl, 10 mmol/l of EDTA, 10 mmol/l of NaCl, 0.2% triton-X 100, pH 8.0, 50 micrograms/ml of […]) and the lysate is clarified by centrifuging. In the supernatant fluid, the radioactivity is determined by scintillation photometry and, after specific staining of the DNA with diamidinophenylindole (DAPI), the DNA concentration is determined by fluorescence photometry.
(Uptake of a labelled nucleoside into DNA is a usual measure of proliferation.)

For `C=C1/C(=C\C=C2/CCC[C@]3(C)[C@@H]([C@H](C)C/C=C/[C@@H](O)CC4CC4)CC[C@@H]23)C[C@@H](O)C[C@@H]1O` [compound D, 26,27-cyclo-24a,24b-dihomo-9,10-secocholesta-5Z,7E,10(19),23E-tetraene-1(S),3(R),24a(S)-triol], in assay [1], the “differentiation-stimulating effect compared with calcitriol” value is listed as “practically do not differ” and the EC50 turned out to be 2.5 nM. On to `C=C1/C(=C\C=C2/CCC[C@]3(C)[C@@H]([C@H](C)CCCC(C)(C)O)CC[C@@H]23)C[C@@H](O)C[C@@H]1O` [calcitriol, lalpha,25-dihydroxycholecalciferol, reference compound], for which, in assay [1], the EC50 worked out at 1.8 nM. In assay [2] (Keratinocyte), the IC50 came out at 2 nM. Take `C=C1/C(=C\C=C2/CCC[C@]3(C)[C@@H]([C@H](C)C/C=C/C(O)CC(C)C)CC[C@@H]23)C[C@@H](O)C[C@@H]1O` (single isomer, unassigned) [compound B]: in assay [2], the IC50 amounted to 3.2 nM.

Regarding `C=C1/C(=C\C=C2/CCC[C@]3(C)[C@@H]([C@H](C)C/C=C/[C@H](O)CC4CC4)CC[C@@H]23)C[C@@H](O)C[C@@H]1O` [compound C, 26,27-cyclo-24a,24b-dihomo-9,10-secocholesta-5Z,7E,10(19),23E-tetraene-1(S),3(R),24a(R)-triol], in assay [1], the “differentiation-stimulating effect compared with calcitriol” value is listed as “practically do not differ” and the EC50 came out at 2.2 nM.

Consider `C=C1/C(=C\C=C2/CCC[C@]3(C)[C@@H]([C@H](C)C/C=C/C(O)CC(C)C)CC[C@@H]23)C[C@@H](O)C[C@@H]1O` (single isomer, unassigned) [compound A], for which the IC50 in assay [2] was determined as 10 nM.
